Drawing on patent publication US8304557B2, “Fused heterocycle derivatives and use thereof” (Takeda Pharmaceutical Company Limited, priority 2007, dated 2012), this text covers IC50 and inhibition for 13 compounds.

The target of assay [1] is T1, Platelet-derived growth factor receptor α (PDGFRα) intracellular domain protein (Homo sapiens, UniProt P16234).
T1 construct: 125 ng/ml of PDGFα intracellular domain protein (UPSTATE); purchased UPSTATE
The experiment in a line: PDGFRα kinase inhibitory activity (AlphaScreen). Format: biochemical. To be noted: ATP 25 μM solution; 25° C., 30 min; read-out: IC50 value, PDGFRα kinase inhibition. As to the method:
A test compound dissolved in dimethyl sulfoxide (DMSO) was diluted with a buffer (50 mM Tris-HCl (pH 7.5), 5 mM MgCl2, 5 mM MnCl2, 2 mM dithiothreitol, 0.01% Tween-20). […] The reaction solution was allowed to stand at 25° C. for 16 hrs, and the wells were counted using a plate reader Fusion™ (PerkinElmer). The kinase inhibitory rate (%) of the test compound was calculated by the following formula: Inhibitory rate(%)=(1−(count of test compound−blank)÷(control−blank))×100
(§1) The count of the solution reacted without addition of the compound was used as a “control”, and the count of the solution without the compound and ATP was used as a “blank”.
On the technique in general: In Alpha technology, singlet oxygen from a donor bead excites a nearby acceptor bead.

Assay [2] concerns the target T2, PDGFRβ intracellular domain protein (Homo sapiens, UniProt P09619).
T2 construct: 125 ng/ml of PDGFRβ intracellular domain protein (UPSTATE); purchased UPSTATE
The experiment in a line: PDGFRβ kinase inhibitory activity (AlphaScreen). The assay is classed as biochemical. The conditions noted are these: ATP 50 μM solution; 25° C., 60 min; read-out: IC50 value, PDGFRβ kinase inhibition. As to the method:
A test compound dissolved in dimethyl sulfoxide (DMSO) was diluted with a buffer (50 mM Tris-HCl (pH 7.5), 5 mM MgCl2, 5 mM MnCl2, 2 mM dithiothreitol, 0.01% Tween-20). […] The reaction solution was allowed to stand at 25° C. for 16 hr, and the wells were counted using a plate reader Fusion™ (PerkinElmer). The kinase inhibitory rate (%) of the test compound was calculated by the following formula: Inhibitory rate(%)=(1−(count of test compound−blank)÷(control−blank))×100
as §1

Assay [3] has as its target VEGFR2 intracellular domain protein (Homo sapiens, UniProt P35968). The experiment in a line: VEGF receptor 2 kinase inhibitory activity (AlphaScreen). The conditions noted are these: read-out: The inhibitory rate of the compounds at 1 μM (VEGF receptor 2 kinase).
Procedure: Human vascular endothelial growth factor receptor 2 (hereinafter to be referred to as VEGFR2) gene was cloned by PCR using cDNA Libraries Human Placenta (Clontech) as a template.
The PCR reaction was conducted using a KOD-plus kit (TOYOBO). […] Furthermore, using BAC-TO-BAC Baculovirus Expression System (Invitrogen), virus stock BAC-VEGFR2 of recombinant baculovirus was prepared.
SF-21 cells were sown at 1×10^6 cells/mL to Sf-900II SEM medium (1 L, Invitrogen) containing 10% fetal bovine serum (trace), 50 mg/L Gentamicin (Invitrogen) and 0.1% Pluronic F-68 (Invitrogen), and shaking culture was performed using a 2 L volume Erlenmeyer flask at 27° C., 100 rpm. After culturing for 24 hrs, recombinant baculovirus BAC-VEGFR2 (13.4 mL) was added to the mixture, and the mixture was further cultured for 3 days. The culture medium was centrifuged at 2,000 rpm for 5 min to give virus-infected cells. The infected cells were washed with a phosphate buffered saline (Invitrogen), centrifuged under the same conditions, and the cells were preserved at −80° C. The cryopreserved cells were thawed in ice, suspended in buffer A (50 mM Tris buffer (30 mL, pH 7.4) containing 20% glycerol, 0.15 M NaCl) supplemented with Complete Protease Inhibitor (Boehringer), and ruptured 3 times with a Polytron homogenizer (Kinematica) at 20,000 rpm for 30 sec. The ruptured medium was clarified by centrifugation at 40,000 rpm for 30 min and filtered with a 0.45 μm filter. The filtrate was passed through a column packed with Anti-FLAG M2 Affinity Gel (4 mL, Sigma) at a flow rate of about 0.5 mL/min. The column was washed with buffer A, and eluted with buffer A containing 100 μg/mL of FLAG peptide. The eluate was concentrated with Vivaspin 20 (Vivascience) having a molecular weight cut off of 30K. The buffer of this concentrate was exchanged using NAP™ 25 column (Amersham Bioscience) equilibrated with buffer A. The fractions containing intracellular domain protein of VEGFR2 were collected, glycerol was added to the final concentration of 50% and cryopreserved at −80° C.
A test compound dissolved in DMSO was diluted with a buffer (50 mM Tris-HCl (pH 7.5), 5 mM MgCl2, 5 mM MnCl2, 2 mM dithiothreitol, 0.01% Tween-20). To this compound solution (5 μL) was added a buffer (10 μL) containing 50 ng/mL of VEGFR2 intracellular domain protein and 250 ng/mL of biotin labeled polypeptide biotinyl-poly-Glu:Tyr (4:1, CIS bio International). […] The reaction solution was allowed to stand at 25° C. for 16 hrs, and the wells were counted using a plate reader Fusion™ (PerkinElmer). The kinase inhibitory rate (%) of the test compound was calculated by the following formula: Inhibitory rate(%)=(1−(count of test compound−blank)÷(control−blank))×100
The subject of assay [4] is Human umbilical vein vascular endothelial cells (HUVEC). In words: Vascular endothelial cell growth inhibitory test (VEGF-stimulated HUVEC, WST-8). Format: cell-based. To be noted: 120 h, VEGF 120 ng/mL solution added, 5 days of culture, read-out: IC50 value, vascular endothelial cell growth inhibition. On the procedure:
To be specific, HUVEC was suspended in a vascular endothelial cell medium containing the aforementioned 3% bovine fetal serum and plated in a 96 well flat bottom plate by 50 μL (3000 cells) each well. After culture overnight, various concentrations of the test substance and 120 ng/mL of vascular endothelial growth factor (VEGF) were dissolved in a vascular endothelial cell medium containing 3% bovine fetal serum and added to each well by 50 μL. […] The absorbance at 450 nm was measured by a microtiter plate reader and the cell growth inhibitory activity was determined.

The target of assay [5] is T3, BRAF (V600E) kinase (Homo sapiens, UniProt P15056, V600E).
T3 construct: made in house; host or cells: SF-21 insect cells, recombinant baculovirus BAC-V600E
The experiment in a line: BRAF (V600E) kinase inhibitory activity ([γ-32P]ATP, GST-MEK1 (K96R) substrate). The assay is classed as biochemical. The conditions noted are these: 1 μM compound; BRAF (V600E) 30 ng, GST-MEK1 (K96R) 250 ng; room temperature, 20 min; read-out: The inhibitory rate of the compounds at 1 μM (%). As to the method:
Human BRAF gene was cloned by PCR using human Testis cDNA library (Clontech) as a template. The primer used for PCR was prepared from base sequence (Genbank Accession NM_004333) information of BRAF gene by adding a base sequence encoding flag peptide and a recognition sequence of the restriction enzyme to area encoding the BRAF kinase domain region, so that the protein contains an N-terminal Flag. The primer base sequence is shown below.
The PCR reaction was conducted using Pyrobest (Takara Shuzo Co., Ltd). The obtained PCR product was electrophoresed on agarose gel (1%), the DNA fragment amplified by PCR was recovered from the gel, and then digested with restriction enzymes EcoRI and SalI. The DNA treated with the restriction enzymes was electrophoresed on agarose gel (1%), and the obtained DNA fragment was recovered. The recovered DNA fragment was ligated to plasmid pFASTBAC1 (Invitrogen) digested with restriction enzymes EcoRI and SalI to give expression plasmid pFB-BRAF, and the base sequence of the insert fragment was confirmed. In addition, mutation was introduced into V600E using a Quick change Site Directed Mutagenesis kit (Stratagene). The nucleotide sequences of the primers used are shown in the following.
The obtained plasmid was sequenced to confirm the introduction of mutation into V600E. The plasmid DNA was digested with restriction enzymes EcoRI and SalI, DNA treated with the restriction enzymes was electrophoresed on agarose gel (1%), and the obtained DNA fragment was recovered. The recovered DNA fragment was ligated to plasmid pFASTBAC1 (Invitrogen) digested with restriction enzymes EcoRI and SalI to give expression plasmid pFB-V600E.
SF-21 cells were sown at 1×10^6 cells/mL to Sf-900II SFM medium (1 L, Invitrogen) containing 10% fetal bovine serum (Trace), 50 mg/L Gentamicin (Invitrogen) and 0.1% Pluronic F-68 (Invitrogen), and shaking culture was performed using a 2 L volume Erlenmeyer flask at 27° C., 100 rpm. After culturing for 24 hr, recombinant baculovirus BAC-V600E (13.4 mL) was added to the mixture, and the mixture was further cultured for 3 days. […]

T1 sequence (P16234 550-1089 limits assumed): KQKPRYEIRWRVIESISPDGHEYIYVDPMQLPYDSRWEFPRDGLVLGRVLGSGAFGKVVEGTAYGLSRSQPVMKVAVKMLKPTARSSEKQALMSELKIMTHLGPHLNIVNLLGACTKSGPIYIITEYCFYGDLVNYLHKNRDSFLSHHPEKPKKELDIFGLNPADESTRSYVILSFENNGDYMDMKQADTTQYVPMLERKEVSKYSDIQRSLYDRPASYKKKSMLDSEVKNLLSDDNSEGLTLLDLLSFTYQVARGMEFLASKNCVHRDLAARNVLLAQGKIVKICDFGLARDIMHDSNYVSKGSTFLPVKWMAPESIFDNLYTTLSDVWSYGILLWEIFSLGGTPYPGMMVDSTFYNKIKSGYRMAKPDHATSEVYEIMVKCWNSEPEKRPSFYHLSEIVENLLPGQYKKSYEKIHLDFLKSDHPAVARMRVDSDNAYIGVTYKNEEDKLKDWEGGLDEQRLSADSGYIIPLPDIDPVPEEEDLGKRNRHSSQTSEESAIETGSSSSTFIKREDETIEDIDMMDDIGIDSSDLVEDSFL
T2 sequence (P09619 554-1106 limits assumed): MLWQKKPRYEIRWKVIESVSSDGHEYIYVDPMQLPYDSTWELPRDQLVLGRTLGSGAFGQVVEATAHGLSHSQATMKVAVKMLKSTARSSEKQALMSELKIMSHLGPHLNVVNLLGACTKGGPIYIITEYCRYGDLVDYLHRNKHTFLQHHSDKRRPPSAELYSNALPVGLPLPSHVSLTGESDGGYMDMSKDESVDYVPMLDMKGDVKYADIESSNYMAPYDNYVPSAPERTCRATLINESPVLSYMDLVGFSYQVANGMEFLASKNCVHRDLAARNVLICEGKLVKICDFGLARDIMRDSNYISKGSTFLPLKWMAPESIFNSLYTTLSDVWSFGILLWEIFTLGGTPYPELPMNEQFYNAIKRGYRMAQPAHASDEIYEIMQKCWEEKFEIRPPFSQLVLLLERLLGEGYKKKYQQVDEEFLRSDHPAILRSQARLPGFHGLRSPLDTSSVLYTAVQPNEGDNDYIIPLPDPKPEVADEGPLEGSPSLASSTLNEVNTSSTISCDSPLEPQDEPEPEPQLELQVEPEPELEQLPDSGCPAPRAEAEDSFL
Sequence of VEGFR2 intracellular domain protein (P35968 786-1356 limits assumed): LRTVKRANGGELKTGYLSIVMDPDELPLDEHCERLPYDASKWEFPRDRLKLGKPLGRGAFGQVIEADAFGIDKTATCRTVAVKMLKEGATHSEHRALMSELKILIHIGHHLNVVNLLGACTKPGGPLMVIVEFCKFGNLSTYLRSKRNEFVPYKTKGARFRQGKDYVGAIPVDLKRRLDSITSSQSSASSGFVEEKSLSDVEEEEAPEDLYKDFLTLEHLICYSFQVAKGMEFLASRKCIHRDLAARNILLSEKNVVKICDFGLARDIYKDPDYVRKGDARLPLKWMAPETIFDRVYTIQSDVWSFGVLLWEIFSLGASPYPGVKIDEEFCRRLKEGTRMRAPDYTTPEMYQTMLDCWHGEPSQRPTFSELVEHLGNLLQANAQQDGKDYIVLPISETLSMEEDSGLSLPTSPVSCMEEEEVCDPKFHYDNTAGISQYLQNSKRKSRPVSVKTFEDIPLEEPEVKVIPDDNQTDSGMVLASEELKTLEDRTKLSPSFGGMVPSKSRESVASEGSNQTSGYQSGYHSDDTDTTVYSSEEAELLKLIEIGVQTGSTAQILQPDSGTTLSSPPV
T3 sequence (P15056 457-717 V600E limits assumed): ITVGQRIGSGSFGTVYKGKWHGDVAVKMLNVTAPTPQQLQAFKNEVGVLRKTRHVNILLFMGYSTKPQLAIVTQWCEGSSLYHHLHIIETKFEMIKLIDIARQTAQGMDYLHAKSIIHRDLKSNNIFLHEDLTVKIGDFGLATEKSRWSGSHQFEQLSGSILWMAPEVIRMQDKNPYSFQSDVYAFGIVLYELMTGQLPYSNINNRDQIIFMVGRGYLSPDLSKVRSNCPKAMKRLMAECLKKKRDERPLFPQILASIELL

For `Cc1cccnc1C(=O)Nc1cccc(Oc2ccc3nc(NC(=O)C4CC4)cn3c2)c1` [Example 7-4, N-[3-({2-[(cyclopropylcarbonyl)amino]imidazo[1,2-a]pyridin-6-yl}oxy)phenyl]-3-methylpyridine-2-carboxamide], the IC50 in assay [1], in assay [2] and in assay [4] was at most 0.5 µM in each case. Moreover, the inhibition at 1 µM in assay [3] was at least 90%.

For `Cc1cc(C(=O)Nc2cc(Oc3ccc4nc(NC(=O)C5CC5)cn4c3)ccc2F)n(C)n1` [Example 9-2, N-[5-({2-[(cyclopropylcarbonyl)amino]imidazo[1,2-a]pyridin-6-yl}oxy)-2-fluorophenyl]-1,3-dimethyl-1H-pyrazole-5-carboxamide], the IC50 in assay [1], in assay [2] and in assay [4] was at most 0.5 µM throughout. For the same compound, in assay [3], the inhibition at 1 µM was at least 90%.

For `CCNC(=O)Nc1cn2cc(Oc3ccc(F)c(NC(=O)c4cc(C)nn4C)c3)ccc2n1` [Example 10, N-{5-[(2-{[(ethylamino)carbonyl]amino}imidazo[1,2-a]pyridin-6-yl)oxy]-2-fluorophenyl}-1,3-dimethyl-1H-pyrazole-5-carboxamide], the IC50 in assay [1], in assay [2] and in assay [4] was at most 0.5 µM throughout. Further, the inhibition at 1 µM in assay [3] was at least 90%.

Consider `Cc1cc(C(=O)Nc2cc(Oc3ccc4nc(NC(=O)C5CC5)nn4c3)ccc2C)n(C)n1` [Example 17-2, N-[5-({2-[(cyclopropylcarbonyl)amino][1,2,4]triazolo[1,5-a]pyridin-6-yl}oxy)-2-methylphenyl]-1,3-dimethyl-1H-pyrazole-5-carboxamide], for which the half-inhibitory concentration (IC50) in assay [1], in assay [2] and in assay [4] was at most 0.5 µM each time.

For the compound `Cc1nc(C(=O)Nc2cccc(Oc3ccc4nc(NC(=O)C5CC5)nn4c3)c2)c(C(F)(F)F)o1` [Example 22, N-[3-({2-[(cyclopropylcarbonyl)amino][1,2,4]triazolo[1,5-a]pyridin-6-yl}oxy)phenyl]-2-methyl-5-(trifluoromethyl)-1,3-oxazole-4-carboxamide], the IC50 in assay [1], in assay [2] and in assay [4] was at most 0.5 µM in each case. In addition, in assay [3], the inhibition at 1 µM was at least 90%.

As to `Cc1cc(C(=O)Nc2cc(Oc3ccc4nc(NC(=O)C5CC5)nn4c3)ccc2F)n(C)n1` [Example 23-2, N-[5-({2-[(cyclopropylcarbonyl)amino][1,2,4]triazolo[1,5-a]pyridin-6-yl}oxy)-2-fluorophenyl]-1,3-dimethyl-1H-pyrazole-5-carboxamide], the inhibition at 1 µM in assay [3] was at least 90%. In assay [4], the IC50 is at most 0.5 µM.

As to `CCn1nc(C)cc1C(=O)Nc1cc(Oc2ccc3nc(NC(=O)C4CC4)nn3c2)ccc1F` [Example 72, N-[5-({2-[(cyclopropylcarbonyl)amino][1,2,4]triazolo[1,5-a]pyridin-6-yl}oxy)-2-fluorophenyl]-1-ethyl-3-methyl-1H-pyrazole-5-carboxamide], the IC50 in assay [1], in assay [2] and in assay [4] was at most 0.5 µM throughout. In addition, in assay [3], the inhibition at 1 µM was at least 90%.

`Cc1cc(C(=O)Nc2cccc(Oc3ccn4nc(NC(=O)C5CC5)nc4c3)c2)n(C)n1` [Example 96-4, N-[3-({2-[(cyclopropylcarbonyl)amino][1,2,4]triazolo[1,5-a]pyridine-7-yl}oxy)phenyl]-1,3-dimethyl-1H-pyrazole-5-carboxamide]: the IC50 in assay [1], in assay [2] and in assay [4] was at most 0.5 µM in each case. The inhibition at 1 µM in assay [3] was at least 90%.

`Cc1cc(C(=O)Nc2cccc(Oc3ccc4nc(NC(=O)C5CC5)sc4c3)c2)n(C)n1` [Example 97-2, N-[3-({2-[(cyclopropylcarbonyl)amino]-1,3-benzothiazol-6-yl}oxy)phenyl]-1,3-dimethyl-1H-pyrazole-5-carboxamide]: the IC50 in assay [1] and in assay [4] was at most 0.5 µM throughout. Besides, the inhibition at 1 µM in assay [3] is at least 90%.

As for `Cc1cc(C(=O)Nc2cccc(Oc3ccc4nc(NC(=O)C5CC5)sc4n3)c2)n(C)n1` [Example 99, N-[3-({2-[(cyclopropylcarbonyl)amino][1,3]thiazolo[5,4-b]pyridin-5-yl}oxy)phenyl]-1,3-dimethyl-1H-pyrazole-5-carboxamide], the IC50 in assay [1] and in assay [4] was at most 0.5 µM in each case. Moreover, the inhibition at 1 µM in assay [3] was at least 90%.

In the case of `Cc1cccc(C(=O)Nc2cccc(Oc3ccc4nc(NC(=O)C5CC5)cn4c3)c2)n1` [Example 127-2, N-[3-({2-[(cyclopropylcarbonyl)amino]imidazo[1,2-a]pyridin-6-yl}oxy)phenyl]-6-methylpyridine-2-carboxamide], the IC50 in assay [1], in assay [2] and in assay [4] was at most 0.5 µM each time. The inhibition at 1 µM in assay [3] was at least 90%.

In the case of `O=C(Nc1cccc(Oc2ccc3nc(NC(=O)C4CC4)cn3c2)c1)c1cccc(C(F)(F)F)c1` [Example 226, N-[3-({2-[(cyclopropylcarbonyl)amino]imidazo[1,2-a]pyridin-6-yl}oxy)phenyl]-3-(trifluoromethyl)benzamide], the inhibition at 1 µM in assay [5] was determined as 100%.

For the compound `CC(C)(C#N)c1cccc(C(=O)Nc2cccc(Oc3ccc4nc(NC(=O)C5CC5)nn4c3)c2)c1` [Example 231, 3-(1-cyano-1-methylethyl)-N-[3-({2-[(cyclopropylcarbonyl)amino][1,2,4]triazolo[1,5-a]pyridin-6-yl}oxy)phenyl]benzamide], the inhibition at 1 µM in assay [5] came out at 100%.

One may read the IC50 as the concentration that gives 50% inhibition.
